Results: patent publication US20110070294A1, “Methods for the Administration of Drugs Using Liposomes” (priority 2009, published 2011)

Tested on: bovine blood treated with heparin
Experiment: Hemolysis of heparin-treated bovine blood, absorbance of supernatant at 398 nm
Conditions: sample added to 1.4 mL heparinized bovine blood, room temperature, 10 minutes
Method: 100 μL of a 5 mg/mL lyophilized docetaxel preparation (50 mM sodium oleate reconstituted with 6% liposome (Doc-100), 200 μL of 5 mg/mL lyophilized docetaxel containing 50 mM sodium oleate and reconstituted with 6% liposome (Doc-200), […] of placebo containing 50 mM sodium oleate and reconstituted with 6% liposome (Placebo-100), 200 μL of placebo containing 50 mM sodium oleate and reconstituted with 6% liposome (Placebo-200), […] of Reverse osmotic deionized water (RODI (positive control)), 50 n1, of 50 mM sodium oleate (Na oleate-50) in isotonic 2.5% glycerol or 100 μL of 50 mM sodium oleate (Na oleate-100), or 200 μL of phosphate buffered saline (negative control)) was added to 1.4 mL of bovine blood treated with heparin. Doc-100 and Doc-200 were prepared using procedures similar to those in Examples 1 and 2. The samples were incubated at room temperature for 10 minutes, and then centrifuged at 8000 rpm for 20 minutes. The supernatant was used for spectral analysis. The absorbance of the samples was measured by UV-scanning the samples at wavelengths from 190 nm to 810 nm. The high absorbance at 398 nm is due to hemolysis of the blood.

`CCCCCCCC/C=C\CCCCCCCC(=O)[O-].[Na+]` [Na oleate-50, sodium oleate] was tested, and the “hemolysis (absorbance at 398 nm, FIG. 1)” value was “complete hemolysis”.
